Data published in patent publication US6737383B1, “Herbicidal oxadiazolidines” (priority 1999, dated 2004).

Experiments:
[1] = tested on: bedstraw; assay: Test B pre/postemergence bedstraw; assay type: in vivo, Galium aparine
Method in brief: (§1)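 Herbicidal effect was estimated by eye on a ten-point control scale after plants spent twelve to sixteen days in a greenhouse following soil or foliar treatment. Foliar sprays targeted plants at one to four leaves; all doses were formulated in a non-phytotoxic solvent with surfactant.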

[2] = tested on: blackgrass; assay: Test B pre/postemergence blackgrass; assay type: in vivo, Alopecurus myosuroides
Method in brief: as §1

[3] = tested on: velvetleaf; assay: Test B pre/postemergence velvetleaf; assay type: in vivo, Abutilon theophrasti
Method in brief: as §1

[4] = tested on: wheat; assay: Test B pre/postemergence wheat; assay type: in vivo, Triticum aestivum
Method in brief: as §1

[5] = Rate 62 g/ha, Postemergence, scale 0 to 10 (0 no effect, 10 complete control)
[6] = Rate 125 g/ha, Postemergence, scale of 0 to 10 where 0 is no effect and 10 is complete control
[7] = Preemergence, Rate 62 g/ha, scale of 0 to 10 where 0 is no effect and 10 is complete control
[8] = Preemergence, Rate 250 g/ha, scale of 0 to 10 where 0 is no effect and 10 is complete control
[9] = Preemergence, Rate 500 g/ha, scale of 0 to 10 where 0 is no effect and 10 is complete control
[10] = Rate 250 g/ha, Postemergence, scale of 0 to 10 where 0 is no effect and 10 is complete control
[11] = Rate 500 g/ha, Postemergence, scale 0 to 10, 0 no effect, 10 complete control
[12] = Postemergence, Rate 250 g/ha, scale 0 to 10, 0 is no effect, 10 is complete control
[13] = Preemergence, Rate 62 g/ha, scale 0 to 10 (0 no effect, 10 complete control)
[14] = Postemergence, Rate 125 g/ha, scale 0 to 10, 0 is no effect, 10 is complete control
[15] = Rate 62 g/ha, Postemergence, scale of 0 to 10 where 0 is no effect and 10 is complete control
[16] = Postemergence, Rate 62 g/ha, scale of 0 to 10, 0 is no effect, 10 is complete control
[17] = Postemergence, Rate 500 g/ha, scale 0 to 10, 0 is no effect, 10 is complete control
[18] = Preemergence, Rate 125 g/ha, scale 0 to 10, 0 is no effect, 10 is complete control
[19] = Postemergence, Rate 62 g/ha, scale 0 to 10, 0 is no effect, 10 is complete control
[20] = Postemergence, Rate 125 g/ha, scale of 0 to 10 where 0 is no effect and 10 is complete control
[21] = Postemergence, Rate 1000 g/ha, scale 0 to 10 (0 no effect, 10 complete control)
[22] = Preemergence, Rate 125 g/ha, 0 is no effect, 10 is complete control
[23] = Preemergence, Rate 250 g/ha, scale 0 to 10, 0 is no effect, 10 is complete control
[24] = Preemergence, Rate 500 g/ha, scale 0 to 10 (0 no effect, 10 complete control)
[25] = Rate 250 g/ha, Postemergence, scale 0 to 10, 0 is no effect, 10 is complete control
[26] = Rate 1000 g/ha, Preemergence, scale 0 to 10 (0 no effect, 10 complete control)
[27] = Rate 500 g/ha, Postemergence, scale 0 to 10
[28] = Postemergence, Rate 250 g/ha, scale 0 to 10, 0 no effect, 10 complete control
[29] = Preemergence, Rate 125 g/ha, scale 0 to 10 (0 no effect, 10 complete control)
[30] = Preemergence, Rate 500 g/ha, scale 0 (no effect) to 10 (complete control)
[31] = Rate 125 g/ha, Postemergence, scale 0 to 10, 0 no effect, 10 complete control
[32] = Preemergence, Rate 125 g/ha, scale of 0 to 10 where 0 is no effect and 10 is complete control
[33] = Preemergence, Rate 500 g/ha, scale 0 to 10, 0 is no effect, 10 is complete control
[34] = Postemergence, Rate 250 g/ha, scale 0 to 10
[35] = Rate 125 g/ha, Postemergence, scale 0 to 10, 0 is no effect, 10 is complete control
[36] = Postemergence, Rate 500 g/ha, scale of 0 to 10 where 0 is no effect and 10 is complete control

CCN(C(=O)n1oc(=O)n(C2CC2)c1=O)C1CCCCC1 [Compound 298]
Bedstraw plant response rating (0 to 10 scale) ([1]; Preemergence, Rate 125 g/ha): 0 | Bedstraw plant response rating [1, 5]: 0 | Bedstraw plant response rating [1, 6]: 0 | Blackgrass plant response rating [2, 7]: 0 | Blackgrass plant response rating [2, 8]: 0 | Plant response rating, Blackgrass [2, 9]: 0 | Blackgrass plant response rating [2, 5]: 0 | Blackgrass plant response rating [2, 6]: 0 | Plant response rating, Blackgrass [2, 10]: 0 | Blackgrass plant response rating [2, 11]: 0 | Velvetleaf plant response rating [3, 7]: 0 | Velvetleaf plant response rating (0 to 10 scale) ([3]; Preemergence, Rate 125 g/ha): 0 | Velvetleaf plant response rating [3, 8]: 0 | Plant response rating, Velvetleaf [3, 9]: 0 | Velvetleaf plant response rating [3, 5]: 0 | Velvetleaf plant response rating [3, 6]: 0 | Plant response rating, Velvetleaf [3, 10]: 0 | Wheat plant response rating [4, 7]: 0 | Wheat plant response rating (0 to 10 scale) ([4]; Preemergence, Rate 125 g/ha): 0 | Wheat plant response rating [4, 8]: 0 | Plant response rating, Wheat [4, 9]: 0 | Wheat plant response rating [4, 5]: 0 | Wheat plant response rating [4, 6]: 0 | Plant response rating, Wheat [4, 10]: 0

CC(C)N(C(=O)n1oc(=O)n(N2CCOCC2)c1=O)c1ccc(F)cc1 [Compound 385]
Plant response rating, Bedstraw [1, 12]: 0 | Plant response rating, Bedstraw [1, 13]: 0 | Plant response rating, Bedstraw [1, 11]: 3 | Plant response rating, Blackgrass [2, 14]: 0 | Plant response rating, Blackgrass [2, 12]: 2 | Plant response rating, Blackgrass [2, 13]: 0 | Blackgrass plant response rating (0 to 10 scale) ([2]; Preemergence, Rate 125 g/ha): 0 | Blackgrass plant response rating [2, 8]: 6 | Blackgrass plant response rating [2, 9]: 10 | Blackgrass plant response rating [2, 15]: 0 | Plant response rating, Blackgrass [2, 11]: 8 | Plant response rating, Velvetleaf [3, 14]: 0 | Plant response rating, Velvetleaf [3, 12]: 0 | Plant response rating, Velvetleaf [3, 13]: 0 | Velvetleaf plant response rating (0 to 10 scale) ([3]; Preemergence, Rate 125 g/ha): 0 | Velvetleaf plant response rating [3, 8]: 3 | Velvetleaf plant response rating [3, 9]: 3 | Velvetleaf plant response rating [3, 15]: 0 | Plant response rating, Velvetleaf [3, 11]: 0 | Plant response rating, Wheat [4, 14]: 0 | Plant response rating, Wheat [4, 12]: 0 | Plant response rating, Wheat [4, 13]: 0 | Wheat plant response rating (0 to 10 scale) ([4]; Preemergence, Rate 125 g/ha): 0 | Wheat plant response rating [4, 8]: 3 | Wheat plant response rating [4, 9]: 8 | Wheat plant response rating [4, 15]: 0 | Plant response rating, Wheat [4, 11]: 5

CC(C)N(C(=O)n1oc(=O)n(CC2CCC2)c1=O)c1ccc(Cl)cc1 [Compound 550]
Bedstraw plant response rating [1, 16]: 0 | Bedstraw plant response rating [1, 14]: 0 | Plant response rating, Bedstraw [1, 17]: 0 | Bedstraw plant response rating [1, 13]: 0 | Bedstraw plant response rating [1, 18]: 0 | Bedstraw plant response rating (0 to 10 scale) ([1]; Preemergence, Rate 250 g/ha): 0 | Bedstraw plant response rating [1, 9]: 3 | Plant response rating, Bedstraw [1, 10]: 0 | Blackgrass plant response rating [2, 16]: 0 | Blackgrass plant response rating [2, 14]: 0 | Plant response rating, Blackgrass [2, 17]: 2 | Blackgrass plant response rating [2, 13]: 0 | Blackgrass plant response rating [2, 18]: 2 | Blackgrass plant response rating (0 to 10 scale) ([2]; Preemergence, Rate 250 g/ha): 7 | Blackgrass plant response rating [2, 9]: 9 | Plant response rating, Blackgrass [2, 10]: 2 | Velvetleaf plant response rating [3, 16]: 0 | Velvetleaf plant response rating [3, 14]: 0 | Plant response rating, Velvetleaf [3, 17]: 2 | Velvetleaf plant response rating [3, 13]: 0 | Velvetleaf plant response rating [3, 18]: 0 | Velvetleaf plant response rating (0 to 10 scale) ([3]; Preemergence, Rate 250 g/ha): 2 | Velvetleaf plant response rating [3, 9]: 4 | Plant response rating, Velvetleaf [3, 10]: 0 | Wheat plant response rating [4, 16]: 0 | Wheat plant response rating [4, 14]: 0 | Plant response rating, Wheat [4, 17]: 0 | Wheat plant response rating [4, 13]: 0 | Wheat plant response rating [4, 18]: 2 | Wheat plant response rating (0 to 10 scale) ([4]; Preemergence, Rate 250 g/ha): 2 | Wheat plant response rating [4, 9]: 2 | Plant response rating, Wheat [4, 10]: 0

C=CCn1c(=O)on(C(=O)N(c2ccc(F)cc2F)C2CC2)c1=O [Compound 127]
Bedstraw plant response rating [1, 19]: 0 | Bedstraw plant response rating [1, 20]: 0 | Bedstraw plant response rating [1, 21]: 0 | Bedstraw plant response rating [1, 13]: 0 | Bedstraw plant response rating (0 to 10 scale) [1, 22]: 0 | Bedstraw plant response rating [1, 23]: 0 | Bedstraw plant response rating [1, 24]: 0 | Plant response rating, Bedstraw [1, 25]: 0 | Bedstraw plant response rating [1, 11]: 0 | Plant response rating, Bedstraw [1, 26]: 0 | Blackgrass plant response rating [2, 20]: 0 | Blackgrass plant response rating [2, 21]: 0 | Blackgrass plant response rating [2, 13]: 0 | Blackgrass plant response rating (0 to 10 scale) [2, 22]: 0 | Blackgrass plant response rating [2, 23]: 0 | Blackgrass plant response rating [2, 24]: 0 | Blackgrass plant response rating [2, 15]: 0 | Plant response rating, Blackgrass [2, 25]: 0 | Blackgrass plant response rating [2, 27]: 0 | Plant response rating, Blackgrass [2, 26]: 0 | Velvetleaf plant response rating [3, 20]: 0 | Velvetleaf plant response rating [3, 21]: 0 | Velvetleaf plant response rating [3, 13]: 0 | Velvetleaf plant response rating (0 to 10 scale) [3, 22]: 0 | Velvetleaf plant response rating [3, 23]: 0 | Velvetleaf plant response rating [3, 24]: 0 | Velvetleaf plant response rating [3, 15]: 0 | Plant response rating, Velvetleaf [3, 25]: 0 | Velvetleaf plant response rating [3, 27]: 0 | Plant response rating, Velvetleaf [3, 26]: 0 | Wheat plant response rating [4, 20]: 0 | Wheat plant response rating [4, 21]: 0 | Wheat plant response rating [4, 13]: 0 | Wheat plant response rating (0 to 10 scale) [4, 22]: 0 | Wheat plant response rating [4, 23]: 0 | Wheat plant response rating [4, 24]: 0 | Wheat plant response rating [4, 15]: 0 | Plant response rating, Wheat [4, 25]: 0 | Wheat plant response rating [4, 27]: 0 | Plant response rating, Wheat [4, 26]: 2

Cc1ccccc1Cn1c(=O)on(C(=O)N(C)c2ccccc2)c1=O [Compound 85]
Bedstraw plant response rating [1, 19]: 0 | Bedstraw plant response rating [1, 28]: 0 | Bedstraw plant response rating [1, 13]: 0 | Plant response rating, Bedstraw [1, 29]: 0 | Plant response rating, Bedstraw [1, 8]: 0 | Bedstraw plant response rating [1, 30]: 0 | Bedstraw plant response rating [1, 31]: 0 | Bedstraw plant response rating [1, 11]: 0 | Blackgrass plant response rating [2, 19]: 0 | Blackgrass plant response rating [2, 28]: 0 | Blackgrass plant response rating [2, 13]: 0 | Plant response rating, Blackgrass [2, 29]: 0 | Plant response rating, Blackgrass [2, 8]: 0 | Blackgrass plant response rating [2, 30]: 0 | Blackgrass plant response rating [2, 31]: 0 | Blackgrass plant response rating [2, 11]: 0 | Velvetleaf plant response rating [3, 19]: 0 | Velvetleaf plant response rating [3, 28]: 0 | Velvetleaf plant response rating [3, 13]: 0 | Plant response rating, Velvetleaf [3, 29]: 0 | Plant response rating, Velvetleaf [3, 8]: 0 | Velvetleaf plant response rating [3, 30]: 0 | Velvetleaf plant response rating [3, 31]: 0 | Velvetleaf plant response rating [3, 11]: 0 | Wheat plant response rating [4, 19]: 0 | Wheat plant response rating [4, 28]: 0 | Wheat plant response rating [4, 13]: 0 | Plant response rating, Wheat [4, 29]: 0 | Plant response rating, Wheat [4, 8]: 0 | Wheat plant response rating [4, 30]: 0 | Wheat plant response rating [4, 31]: 0 | Wheat plant response rating [4, 11]: 0

CCc1nc(C)c(C(C)n2c(=O)on(C(=O)N(c3ccc(F)cc3)C(C)C)c2=O)s1 (centres unmarked) [Compound 449]
Plant response rating, Bedstraw [1, 7]: 0 | Plant response rating, Bedstraw [1, 32]: 0 | Bedstraw plant response rating [1, 23]: 0 | Bedstraw plant response rating [1, 33]: 4 | Blackgrass plant response rating [2, 34]: 0 | Plant response rating, Blackgrass [2, 7]: 0 | Plant response rating, Blackgrass [2, 32]: 0 | Blackgrass plant response rating [2, 23]: 0 | Blackgrass plant response rating [2, 33]: 3 | Blackgrass plant response rating [2, 5]: 0 | Blackgrass plant response rating [2, 35]: 0 | Velvetleaf plant response rating [3, 34]: 0 | Velvetleaf plant response rating [3, 36]: 0 | Plant response rating, Velvetleaf [3, 7]: 0 | Plant response rating, Velvetleaf [3, 32]: 0 | Velvetleaf plant response rating [3, 23]: 0 | Velvetleaf plant response rating [3, 33]: 0 | Velvetleaf plant response rating [3, 5]: 0 | Velvetleaf plant response rating [3, 35]: 0 | Wheat plant response rating [4, 34]: 0 | Wheat plant response rating [4, 36]: 3 | Plant response rating, Wheat [4, 7]: 0 | Plant response rating, Wheat [4, 32]: 0 | Wheat plant response rating [4, 23]: 0 | Wheat plant response rating [4, 33]: 0 | Wheat plant response rating [4, 5]: 0 | Wheat plant response rating [4, 35]: 0
